How the values were obtained:
[1] = biological target: T1, mPXR ligand binding domain (Mus musculus, UniProt O54915); assay: LanthaScreen TR-FRET PXR competitive binding assay, mPXR LBD; details: read-out: EC50 for ligand displacement in mPXR
T1 construct: made in house
T1 sequence (O54915 143-430 limits assumed): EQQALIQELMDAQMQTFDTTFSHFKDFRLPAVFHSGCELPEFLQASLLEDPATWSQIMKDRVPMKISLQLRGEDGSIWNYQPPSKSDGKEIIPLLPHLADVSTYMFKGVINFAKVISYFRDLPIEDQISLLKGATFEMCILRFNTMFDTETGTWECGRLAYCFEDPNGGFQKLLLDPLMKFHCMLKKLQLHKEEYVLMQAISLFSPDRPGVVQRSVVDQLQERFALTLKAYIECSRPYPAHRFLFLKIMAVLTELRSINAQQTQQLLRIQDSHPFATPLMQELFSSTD
Description: (§1) A LanthaScreen TR-FRET PXR Competitive Binding Assay was conducted according to the manufacturer's protocol (Invitrogen) as previously published (14). Briefly, serial dilutions of indole 3-propionic acid (diluted in TR-FRET PXR Assay Buffer, Invitrogen) were dispensed into triplicate wells of a black, non-treated 384 well plate (Corning Life Sciences). Subsequently, 5 μl of Fluormone PXR Green was added into each well. Finally, 5 μl of a master mix containing hPXR ligand binding domain (LBD), terbium labeled anti-glutathione S transferase (final concentration 10 nM) and dithiothreitol (final concentration 0.05 mM) was added into each well. For mPXR ligand binding domain, GST tagged mPXR LBD was purified using Glutathione Sepharose 4 Fast Flow beads (GE Health Care) in Poly-Prep Chromatography columns (Bio-Rad). hPXR LBD of the assay kit was replaced with the similar concentrations of mPXR LBD. The content was mixed briefly (10 s) and incubated in dark at room temperature for 1 h. TR-FRET was measured using SpectraMaxR M5 microplate reader (Molecular Devices) with the excitation wavelength of 340 nm and emission wavelengths of 520 and 495 nm. TR-FRET ratio was calculated by dividing the emission signal at 520 nm by emission signal at 495 nm. Data are expressed as percentage TR-FRET ratio. Error bars represent s.e.m of duplicate wells from two separate experiments.

Tnf-α mRNA expression = assay: KDO2-lipid A gut mucosal endotoxemia model with oral IPA, Tnf-α qPCR in jejunum apical enterocytes; format: in vivo; details: KDO2 200 μg/mice, oral IPA 20 mg/kg
Description: 2.0 μg of total RNA extracted from pooled apical enterocytes with TRIzolR (Invitrogen), were reverse transcribed with random hexamer primers and SuperScript™ III-RT enzyme (Invitrogen). Quantitative PCR (qPCR) reactions using TaqMan universal PCR master mix and TaqMan probes containing FAM as the 5′ reporter fluorochrome and tetramethylrhodamine (MGB) as the 3′ quencher fluorochrome, were performed in triplicate for each sample and analyzed on the ABI Prism 7900HT system. […]
For indomethacin induced mouse jejunitis model, a protocol published by Ettarh and Carr was modified by using a single intraperitoneal dose of indomethacin to reduce the toxicity in Pxr^−/− mice (17). […] Weights of individual jejunum sections were measured for quantitation of enteropooling (intestinal weight/length in mg/cm). […]

[2] = biological target: T2, hPXR ligand binding domain (LBD) (Homo sapiens, UniProt O75469); assay: LanthaScreen TR-FRET PXR competitive binding assay, hPXR LBD; details: read-out: EC50 for ligand displacement in hPXR
T2 construct: purchased Invitrogen
T2 sequence (O75469 146-433 limits assumed): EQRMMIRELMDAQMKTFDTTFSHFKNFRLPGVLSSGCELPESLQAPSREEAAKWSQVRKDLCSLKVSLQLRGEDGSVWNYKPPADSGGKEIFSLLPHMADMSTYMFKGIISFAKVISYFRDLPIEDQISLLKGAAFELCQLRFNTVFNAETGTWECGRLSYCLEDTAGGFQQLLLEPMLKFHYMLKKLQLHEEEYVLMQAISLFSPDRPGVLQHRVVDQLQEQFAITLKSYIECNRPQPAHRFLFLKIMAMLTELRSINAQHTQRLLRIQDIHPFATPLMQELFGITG
Description: as §1

In the case of O=C(O)CCc1c[nH]c2ccccc12 [IPA, indole-3-propionic acid], the EC50 [1] is reported as 1100 nM, the “Decrease of epithelial Tnf mRNA expression” value (Tnf-α mRNA expression; Pxr+/+ mice) is reported as 3.73 fold and the “Decrease of epithelial Tnf mRNA expression” value (Tnf-α mRNA expression; Pxr−/− mice) is reported as 1.72 fold. It also gave an EC50 [2] of 2100 nM.

Source: patent US9925222B2, “Gut barrier dysfunction treatment and prevention” (ALBERT EINSTEIN COLLEGE OF MEDICINE OF YESHIVA UNIVERSITY, priority 2012, dated 2018)
